Measured values reported in ChEMBL document CHEMBL1909046, “DrugMatrix in vitro pharmacology data”.
Where a SMILES comes first, the peptide text is derived from it. Bridges are numbered along the chain shown (N, C = ends). [ ]: non-standard residue; d: D form. The star is where a group is joined. Threoninol(2S,3R) = C[C@@H](O)[C@H](CO)N*

Experiments:
[1] = molecular target: 5-hydroxytryptamine receptor 6 (Homo sapiens, UniProt P50406); format: cell membranes, HeLa, Membrane; settings: hela; note: in other assays of this panel Not Active means under 50% inhibition at 10 µM
Substance-P receptor = Substance-P receptor (Homo sapiens, UniProt P25103); format: cell membranes, Membrane; settings: cho; note: in other assays of this panel Not Active means under 50% inhibition at 10 µM
Progesterone receptor = molecular target: T1, Progesterone receptor (Bos taurus, UniProt Q690N0); assay: DRUGMATRIX: Progesterone radioligand binding (ligand: [3H] R-5020); format: tissue-based, Uterus; settings: Not Active = under 50% inhibition at 10 µM
T1 sequence (Q690N0 whole entry): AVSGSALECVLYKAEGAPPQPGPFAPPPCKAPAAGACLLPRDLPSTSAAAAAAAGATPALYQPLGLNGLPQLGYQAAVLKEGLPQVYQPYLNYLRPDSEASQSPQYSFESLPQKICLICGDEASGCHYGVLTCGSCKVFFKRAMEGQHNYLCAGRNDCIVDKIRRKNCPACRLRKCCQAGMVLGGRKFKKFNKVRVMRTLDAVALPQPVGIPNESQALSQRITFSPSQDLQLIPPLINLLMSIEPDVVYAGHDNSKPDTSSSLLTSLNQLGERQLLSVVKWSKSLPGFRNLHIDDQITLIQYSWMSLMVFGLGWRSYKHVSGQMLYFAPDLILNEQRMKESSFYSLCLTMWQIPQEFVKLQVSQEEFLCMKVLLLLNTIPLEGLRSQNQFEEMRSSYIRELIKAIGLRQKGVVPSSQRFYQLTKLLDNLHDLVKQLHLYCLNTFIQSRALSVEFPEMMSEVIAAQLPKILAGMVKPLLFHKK

[2] = molecular target: Tyrosine-protein kinase Lck (Homo sapiens, UniProt P06239); assay: DRUGMATRIX: Protein Tyrosine Kinase, LCK enzyme inhibition (substrate: Poly(Glu:Tyr)); format: cell-based, Insect cells; settings: insect cells; Not Active = under 50% inhibition at 10 µM
[3] = DRUGMATRIX: GABAA, Chloride Channel, TBOB radioligand binding (ligand: [3H] TBOB); format: cell membranes, Rattus norvegicus, Wistar, Cerebral cortex, Membrane; settings: Not Active = under 50% inhibition at 10 µM
Cannabinoid receptor 1 = Cannabinoid receptor 1 (Homo sapiens, UniProt P21554); format: cell membranes, Chem-1, Membrane; settings: chem-1; note: in other assays of this panel Not Active means under 50% inhibition at 10 µM
Endothelin-1 receptor = molecular target: T2, Endothelin-1 receptor (Homo sapiens, UniProt P25101); format: cell membranes, Membrane; settings: cho-k1; note: in other assays of this panel Not Active means under 50% inhibition at 10 µM
T2 sequence (P25101 whole entry): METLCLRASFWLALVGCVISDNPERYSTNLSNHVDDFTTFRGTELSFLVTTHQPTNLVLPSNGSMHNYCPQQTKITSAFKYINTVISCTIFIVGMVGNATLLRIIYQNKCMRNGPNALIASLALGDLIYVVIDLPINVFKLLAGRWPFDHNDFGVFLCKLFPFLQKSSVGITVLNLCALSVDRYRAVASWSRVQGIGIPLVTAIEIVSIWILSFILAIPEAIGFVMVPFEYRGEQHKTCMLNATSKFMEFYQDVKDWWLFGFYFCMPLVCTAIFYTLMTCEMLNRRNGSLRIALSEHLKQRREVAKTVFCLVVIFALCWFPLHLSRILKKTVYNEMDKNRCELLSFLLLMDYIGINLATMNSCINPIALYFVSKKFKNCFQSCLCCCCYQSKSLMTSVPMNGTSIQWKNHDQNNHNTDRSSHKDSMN

Sequence of Cannabinoid receptor 1 (P21554 whole entry): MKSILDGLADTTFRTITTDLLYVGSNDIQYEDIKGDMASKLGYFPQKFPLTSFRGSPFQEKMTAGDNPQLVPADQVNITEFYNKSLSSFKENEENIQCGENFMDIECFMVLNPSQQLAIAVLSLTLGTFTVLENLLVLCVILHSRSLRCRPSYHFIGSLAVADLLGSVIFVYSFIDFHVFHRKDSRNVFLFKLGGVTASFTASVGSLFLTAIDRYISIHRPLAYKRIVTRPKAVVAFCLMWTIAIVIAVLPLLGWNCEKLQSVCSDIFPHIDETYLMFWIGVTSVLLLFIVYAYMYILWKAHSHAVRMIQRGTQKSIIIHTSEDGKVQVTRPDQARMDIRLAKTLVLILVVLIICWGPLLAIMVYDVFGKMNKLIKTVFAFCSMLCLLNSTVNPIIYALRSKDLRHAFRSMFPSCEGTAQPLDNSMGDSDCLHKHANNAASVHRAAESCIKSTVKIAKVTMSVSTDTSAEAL
Sequence of 5-hydroxytryptamine receptor 6 (P50406 whole entry): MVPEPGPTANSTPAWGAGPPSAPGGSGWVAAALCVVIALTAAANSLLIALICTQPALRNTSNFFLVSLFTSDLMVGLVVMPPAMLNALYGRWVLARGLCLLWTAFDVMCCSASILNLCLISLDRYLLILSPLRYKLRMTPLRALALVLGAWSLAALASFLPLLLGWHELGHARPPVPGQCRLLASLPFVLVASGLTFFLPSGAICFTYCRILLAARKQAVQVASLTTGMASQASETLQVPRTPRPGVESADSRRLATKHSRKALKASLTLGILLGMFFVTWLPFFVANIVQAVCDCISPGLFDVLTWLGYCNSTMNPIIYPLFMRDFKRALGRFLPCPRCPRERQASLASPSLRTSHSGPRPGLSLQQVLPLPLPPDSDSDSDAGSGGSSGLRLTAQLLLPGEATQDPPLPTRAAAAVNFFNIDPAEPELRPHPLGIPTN
Sequence of Substance-P receptor (P25103 whole entry): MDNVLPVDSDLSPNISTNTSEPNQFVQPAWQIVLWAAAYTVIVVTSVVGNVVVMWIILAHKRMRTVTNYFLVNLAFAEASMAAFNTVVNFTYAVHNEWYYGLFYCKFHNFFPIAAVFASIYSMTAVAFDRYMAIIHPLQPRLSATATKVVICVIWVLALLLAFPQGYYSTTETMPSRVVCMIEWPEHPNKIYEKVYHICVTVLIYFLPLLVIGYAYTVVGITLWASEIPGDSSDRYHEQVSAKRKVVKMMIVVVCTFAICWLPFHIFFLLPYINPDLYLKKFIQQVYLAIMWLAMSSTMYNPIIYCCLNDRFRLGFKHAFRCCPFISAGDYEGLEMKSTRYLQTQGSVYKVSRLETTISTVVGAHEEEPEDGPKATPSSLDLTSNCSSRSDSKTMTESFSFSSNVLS
Sequence of Tyrosine-protein kinase Lck (P06239 whole entry): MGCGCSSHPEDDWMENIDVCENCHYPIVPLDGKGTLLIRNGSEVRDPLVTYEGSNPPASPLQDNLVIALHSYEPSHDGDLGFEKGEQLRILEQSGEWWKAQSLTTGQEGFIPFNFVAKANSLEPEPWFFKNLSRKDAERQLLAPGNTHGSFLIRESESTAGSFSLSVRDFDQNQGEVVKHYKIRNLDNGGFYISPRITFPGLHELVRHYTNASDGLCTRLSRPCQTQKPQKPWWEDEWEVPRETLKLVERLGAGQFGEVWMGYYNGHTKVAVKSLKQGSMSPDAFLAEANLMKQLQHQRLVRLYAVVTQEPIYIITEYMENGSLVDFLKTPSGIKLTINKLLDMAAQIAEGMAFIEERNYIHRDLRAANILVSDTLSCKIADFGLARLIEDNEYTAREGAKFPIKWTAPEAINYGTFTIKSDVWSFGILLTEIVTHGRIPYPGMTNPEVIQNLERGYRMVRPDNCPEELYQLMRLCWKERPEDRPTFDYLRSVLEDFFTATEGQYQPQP

COc1ccccc1C(=O)N1CCC(Cc2ccccc2)CC1
Not Active: IC50 [1] | IC50 (Substance-P receptor) | IC50 (Progesterone receptor) | IC50 [2] | IC50 [3] | Ki [3] | IC50 (Cannabinoid receptor 1) | IC50 (Endothelin-1 receptor)

Cc1ccccc1C(=O)N1CCC(Cc2ccccc2)CC1
Not Active: IC50 [1] | IC50 (Substance-P receptor) | IC50 (Progesterone receptor) | IC50 [2] | IC50 [3] | Ki [3] | IC50 (Cannabinoid receptor 1) | IC50 (Endothelin-1 receptor)

O=C1CC[C@H](N2C(=O)c3ccccc3C2=O)C(=O)N1
Not Active: IC50 [1] | IC50 (Substance-P receptor) | IC50 (Progesterone receptor) | IC50 [2] | IC50 [3] | Ki [3] | IC50 (Cannabinoid receptor 1) | IC50 (Endothelin-1 receptor)

N=C(Nc1ccccc1)Nc1ccccc1
Not Active: IC50 [1] | IC50 (Substance-P receptor) | IC50 (Progesterone receptor) | IC50 [2] | IC50 [3] | Ki [3] | IC50 (Cannabinoid receptor 1) | IC50 (Endothelin-1 receptor)

C[C@@H](O)[C@H](CO)NC(=O)[C@@H]1CSSC[C@H](NC(=O)[C@H](N)Cc2ccccc2)C(=O)N[C@@H](Cc2ccccc2)C(=O)N[C@H](Cc2c[nH]c3ccccc23)C(=O)N[C@@H](CCCCN)C(=O)N[C@@H]([C@@H](C)O)C(=O)N1 (H-[dF]CF[dW]KTC-{Threoninol(2S,3R)}; disulfide 2-7)
Not Active: IC50 [1] | IC50 (Substance-P receptor) | IC50 (Progesterone receptor) | IC50 [2] | IC50 [3] | Ki [3] | IC50 (Cannabinoid receptor 1) | IC50 (Endothelin-1 receptor)

S=C=Nc1cccc2ccccc12 [1-NAPHTHYLISOTHIOCYANATE]
Not Active: IC50 [1] | IC50 (Substance-P receptor) | IC50 (Progesterone receptor) | IC50 [2] | IC50 [3] | Ki [3] | IC50 (Cannabinoid receptor 1) | IC50 (Endothelin-1 receptor)

C[C@](O)(CS(=O)(=O)c1ccc(F)cc1)C(=O)Nc1ccc(C#N)c(C(F)(F)F)c1 [(R)-BICALUTAMIDE]
Not Active: IC50 [1] | IC50 (Substance-P receptor) | IC50 (Progesterone receptor) | IC50 [2] | IC50 [3] | Ki [3] | IC50 (Cannabinoid receptor 1) | IC50 (Endothelin-1 receptor)

CCCC(=O)Nc1ccc(OCC(O)CNC(C)C)c(C(C)=O)c1 (configuration not stated) [ACEBUTOLOL]
Not Active: IC50 [1] | IC50 (Substance-P receptor) | IC50 (Progesterone receptor) | IC50 [2] | IC50 [3] | Ki [3] | IC50 (Cannabinoid receptor 1) | IC50 (Endothelin-1 receptor)

CC(=O)Nc1ccc(O)cc1 [ACETAMINOPHEN]
Not Active: IC50 [1] | IC50 (Substance-P receptor) | IC50 (Progesterone receptor) | IC50 [2] | IC50 [3] | Ki [3] | IC50 (Cannabinoid receptor 1) | IC50 (Endothelin-1 receptor)

COc1cc2c(c3oc(=O)c4c(c13)CCC4=O)[C@@H]1C=CO[C@@H]1O2 [AFLATOXIN]
Not Active: IC50 [1] | Ki [1] | IC50 (Substance-P receptor) | Ki (Substance-P receptor) | IC50 (Progesterone receptor) | Ki (Progesterone receptor) | IC50 [2] | Ki [2] | IC50 [3] | Ki [3] | IC50 (Cannabinoid receptor 1) | Ki (Cannabinoid receptor 1) | IC50 (Endothelin-1 receptor) | Ki (Endothelin-1 receptor)

N=C(N)NC(=O)c1nc(Cl)c(N)nc1N [AMILORIDE]
Not Active: IC50 [1] | IC50 (Substance-P receptor) | IC50 (Progesterone receptor) | IC50 [2] | IC50 [3] | Ki [3] | IC50 (Cannabinoid receptor 1) | IC50 (Endothelin-1 receptor)

Cc1cc(=O)n(-c2ccccc2)n1C [ANTIPYRINE]
Not Active: IC50 [1] | IC50 (Substance-P receptor) | IC50 (Progesterone receptor) | IC50 [2] | IC50 [3] | Ki [3] | IC50 (Cannabinoid receptor 1) | IC50 (Endothelin-1 receptor)

CN1C(=O)COc2c(C(=O)NC3CN4CCC3CC4)cc(Cl)cc21 (configuration not stated) [AZASETRON]
Not Active: IC50 [1] | IC50 (Substance-P receptor) | IC50 (Progesterone receptor) | IC50 [2] | IC50 [3] | Ki [3] | IC50 (Cannabinoid receptor 1) | IC50 (Endothelin-1 receptor)

C[C@H]1C[C@H]2[C@@H]3CCC4=CC(=O)C=C[C@]4(C)[C@@]3(Cl)[C@@H](O)C[C@]2(C)[C@@]1(O)C(=O)CO [BECLOMETHASONE]
Not Active: IC50 [1] | IC50 (Substance-P receptor) | IC50 (Progesterone receptor) | IC50 [2] | IC50 [3] | Ki [3] | IC50 (Cannabinoid receptor 1) | IC50 (Endothelin-1 receptor)

CCOC(=O)[C@H](CCc1ccccc1)N[C@H]1CCc2ccccc2N(CC(=O)O)C1=O [BENAZEPRIL]
Not Active: IC50 [1] | IC50 (Substance-P receptor) | IC50 (Progesterone receptor) | IC50 [2] | IC50 [3] | Ki [3] | IC50 (Cannabinoid receptor 1) | IC50 (Endothelin-1 receptor)

Nc1c(CC(=O)O)cccc1C(=O)c1ccc(Br)cc1 [BROMFENAC]
Not Active: IC50 [1] | IC50 (Substance-P receptor) | IC50 (Progesterone receptor) | IC50 [2] | IC50 [3] | Ki [3] | IC50 (Cannabinoid receptor 1) | IC50 (Endothelin-1 receptor)

CCCCN1CCCCC1C(=O)Nc1c(C)cccc1C.Cl (configuration not stated) [BUPIVACAINE HYDROCHLORIDE]
Not Active: IC50 [1] | IC50 (Substance-P receptor) | IC50 (Progesterone receptor) | IC50 [2] | IC50 [3] | Ki [3] | IC50 (Cannabinoid receptor 1) | IC50 (Endothelin-1 receptor)

C=C1CC[C@H](O)C/C1=C/C=C1\CCC[C@]2(C)[C@@H]([C@H](C)CCCC(C)C)CC[C@@H]12 [CHOLECALCIFEROL]
Not Active: IC50 [1] | IC50 (Substance-P receptor) | IC50 [2] | IC50 [3] | Ki [3] | IC50 (Cannabinoid receptor 1) | IC50 (Endothelin-1 receptor)

C/C=C/C[C@@H](C)[C@@H](O)[C@H]1C(=O)N[C@@H](CC)C(=O)N(C)CC(=O)N(C)[C@@H](CC(C)C)C(=O)N[C@@H](C(C)C)C(=O)N(C)[C@@H](CC(C)C)C(=O)N[C@@H](C)C(=O)N[C@H](C)C(=O)N(C)[C@@H](CC(C)C)C(=O)N(C)[C@@H](CC(C)C)C(=O)N(C)[C@@H](C(C)C)C(=O)N1C [CYCLOSPORINE]
Not Active: IC50 [1] | IC50 (Substance-P receptor) | IC50 (Progesterone receptor) | IC50 [2] | IC50 (Cannabinoid receptor 1) | IC50 (Endothelin-1 receptor)

CCCCOc1ccc(OCCCN2CCOCC2)cc1 [PRAMOXINE]
Not Active: IC50 [1] | IC50 (Substance-P receptor) | IC50 [2] | IC50 [3] | Ki [3] | IC50 (Cannabinoid receptor 1) | IC50 (Endothelin-1 receptor)
